Source: PubChem BioAssay AID1259407 (Chemical Carcinogenesis Research Information System (CCRIS), 2018)
Activity calls are given as the source filed them. The rule behind the calls is not given here.

Test system: CCRIS mutagenicity, Ames/micronucleus/aberration tests
Assay: CCRIS mutagenicity studies

Measured: mutagenic call

Nc1c2ccccc2nc2ccccc12
inactive: Test System: AMES SALMONELLA TYPHIMURIUM, Strain/Indicator: TA98, Metabolic Activation: HAMSTER, LIVER, S-9, AROCLOR 1254 (10%), Method: PREINCUBATION inactive; negative | Test System: AMES SALMONELLA TYPHIMURIUM, Strain/Indicator: TA98, Metabolic Activation: NONE, Method: FLUCTUATION (MICROTITER) inactive; negative | Test System: AMES SALMONELLA TYPHIMURIUM, Strain/Indicator: TA98, Metabolic Activation: NONE, Method: PREINCUBATION inactive; negative | Test System: AMES SALMONELLA TYPHIMURIUM, Strain/Indicator: TA98, Metabolic Activation: NONE, Method: SPIRAL ASSAY inactive; negative | Test System: AMES SALMONELLA TYPHIMURIUM, Strain/Indicator: TA98, Metabolic Activation: NONE, Method: STANDARD PLATE inactive; negative | Test System: AMES SALMONELLA TYPHIMURIUM, Strain/Indicator: TA98, Metabolic Activation: RAT, LIVER, S-9, AROCLOR 1254 (10%), Method: PREINCUBATION inactive; negative | Test System: AMES SALMONELLA TYPHIMURIUM, Strain/Indicator: TA98, Metabolic Activation: RAT, LIVER, S-9, AROCLOR 1254, Method: SPIRAL ASSAY inactive; negative | Test System: AMES SALMONELLA TYPHIMURIUM, Strain/Indicator: TA98, Metabolic Activation: RAT, LIVER, S-9, AROCLOR 1254, Method: STANDARD PLATE inactive; negative | Test System: AMES SALMONELLA TYPHIMURIUM, Strain/Indicator: TA100, Metabolic Activation: HAMSTER, LIVER, S-9, AROCLOR 1254 (10%), Method: PREINCUBATION inactive; negative | Test System: AMES SALMONELLA TYPHIMURIUM, Strain/Indicator: TA100, Metabolic Activation: NONE, Method: PREINCUBATION inactive; negative | Test System: AMES SALMONELLA TYPHIMURIUM, Strain/Indicator: TA100, Metabolic Activation: NONE, Method: SPIRAL ASSAY inactive; negative | Test System: AMES SALMONELLA TYPHIMURIUM, Strain/Indicator: TA100, Metabolic Activation: NONE, Method: STANDARD PLATE inactive; negative | Test System: AMES SALMONELLA TYPHIMURIUM, Strain/Indicator: TA100, Metabolic Activation: RAT, LIVER, S-9, AROCLOR 1254 (10%), Method: PREINCUBATION inactive; negative | Test System: AMES SALMONELLA TYPHIMURIUM, Strain/Indicator: TA100, Metabolic Activation: RAT, LIVER, S-9, AROCLOR 1254, Method: SPIRAL ASSAY inactive; negative | Test System: AMES SALMONELLA TYPHIMURIUM, Strain/Indicator: TA100, Metabolic Activation: RAT, LIVER, S-9, AROCLOR 1254, Method: STANDARD PLATE inactive; negative | Test System: AMES SALMONELLA TYPHIMURIUM, Strain/Indicator: TA1535, Metabolic Activation: HAMSTER, LIVER, S-9, AROCLOR 1254 (10%), Method: PREINCUBATION inactive; negative | Test System: AMES SALMONELLA TYPHIMURIUM, Strain/Indicator: TA1535, Metabolic Activation: NONE, Method: PREINCUBATION inactive; negative | Test System: AMES SALMONELLA TYPHIMURIUM, Strain/Indicator: TA1535, Metabolic Activation: NONE, Method: SPIRAL ASSAY inactive; negative | Test System: AMES SALMONELLA TYPHIMURIUM, Strain/Indicator: TA1535, Metabolic Activation: NONE, Method: STANDARD PLATE inactive; negative | Test System: AMES SALMONELLA TYPHIMURIUM, Strain/Indicator: TA1535, Metabolic Activation: RAT, LIVER, S-9, AROCLOR 1254 (10%), Method: PREINCUBATION inactive; negative | Test System: AMES SALMONELLA TYPHIMURIUM, Strain/Indicator: TA1535, Metabolic Activation: RAT, LIVER, S-9, AROCLOR 1254, Method: SPIRAL ASSAY inactive; negative | Test System: AMES SALMONELLA TYPHIMURIUM, Strain/Indicator: TA1535, Metabolic Activation: RAT, LIVER, S-9, AROCLOR 1254, Method: STANDARD PLATE inactive; negative | Test System: AMES SALMONELLA TYPHIMURIUM, Strain/Indicator: TA1535, Metabolic Activation: RAT, LIVER, S-9, TETRACHLOROBIPHENYL, Method: PREINCUBATION inactive; negative | Test System: AMES SALMONELLA TYPHIMURIUM, Strain/Indicator: TA1538, Metabolic Activation: NONE, Method: PREINCUBATION inactive; negative | Test System: AMES SALMONELLA TYPHIMURIUM, Strain/Indicator: TA1538, Metabolic Activation: RAT, LIVER, S-9, TETRACHLOROBIPHENYL, Method: PREINCUBATION inactive; negative | Test System: AMES SALMONELLA TYPHIMURIUM, Strain/Indicator: TA7001, Metabolic Activation: NONE, Method: FLUCTUATION (MICROTITER) inactive; negative | Test System: AMES SALMONELLA TYPHIMURIUM, Strain/Indicator: TA7002, Metabolic Activation: NONE, Method: FLUCTUATION (MICROTITER) inactive; negative | Test System: AMES SALMONELLA TYPHIMURIUM, Strain/Indicator: TA7003, Metabolic Activation: NONE, Method: FLUCTUATION (MICROTITER) inactive; negative | Test System: AMES SALMONELLA TYPHIMURIUM, Strain/Indicator: TA7004, Metabolic Activation: NONE, Method: FLUCTUATION (MICROTITER) inactive; negative | Test System: AMES SALMONELLA TYPHIMURIUM, Strain/Indicator: TA7005, Metabolic Activation: NONE, Method: FLUCTUATION (MICROTITER) inactive; negative | Test System: AMES SALMONELLA TYPHIMURIUM, Strain/Indicator: TA7006, Metabolic Activation: NONE, Method: FLUCTUATION (MICROTITER) inactive; negative | Test System: CHINESE HAMSTER OVARY, Strain/Indicator: CHO-K1-BH4 (HGPRT), Metabolic Activation: NONE, Method: SUSPENSION/PLATE inactive; negative | Test System: CHINESE HAMSTER OVARY, Strain/Indicator: CHO-K1-BH4 (HGPRT), Metabolic Activation: RAT, LIVER, S-9, AROCLOR, Method: SUSPENSION/PLATE inactive; negative | Test System: CHINESE HAMSTER V-79, Strain/Indicator: V-79/6-THIOGUANINE, Metabolic Activation: NONE, Method: FLASK ASSAY inactive; negative | Test System: E. COLI, Strain/Indicator: WP2 UVRA, Metabolic Activation: HAMSTER, LIVER, S-9, AROCLOR 1254, Method: STANDARD PLATE inactive; negative | Test System: E. COLI, Strain/Indicator: WP2 UVRA, Metabolic Activation: HAMSTER, LIVER, S-9, Method: STANDARD PLATE inactive; negative | Test System: E. COLI, Strain/Indicator: WP2 UVRA, Metabolic Activation: MOUSE, LIVER, S-9, AROCLOR 1254, Method: STANDARD PLATE inactive; negative | Test System: E. COLI, Strain/Indicator: WP2 UVRA, Metabolic Activation: MOUSE, LIVER, S-9, Method: STANDARD PLATE inactive; negative | Test System: E. COLI, Strain/Indicator: WP2 UVRA, Metabolic Activation: NONE, Method: STANDARD PLATE inactive; negative | Test System: E. COLI, Strain/Indicator: WP2 UVRA, Metabolic Activation: RAT, LIVER, S-9, AROCLOR 1254, Method: STANDARD PLATE inactive; negative | Test System: E. COLI, Strain/Indicator: WP2 UVRA, Metabolic Activation: RAT, LIVER, S-9, Method: STANDARD PLATE inactive; negative | Test System: UDS RAT HEPATOCYTES, Strain/Indicator: THY INCORP, Metabolic Activation: NONE, Method: AUTORADIOGRAPHY (SERUM-FREE MEDIA) inactive; negative
active: Test System: AMES SALMONELLA TYPHIMURIUM, Strain/Indicator: TA97A, Metabolic Activation: NONE, Method: STANDARD PLATE active; positive | Test System: AMES SALMONELLA TYPHIMURIUM, Strain/Indicator: TA1537, Metabolic Activation: HAMSTER, LIVER, S-9, AROCLOR 1254 (10%), Method: PREINCUBATION active; positive | Test System: AMES SALMONELLA TYPHIMURIUM, Strain/Indicator: TA1537, Metabolic Activation: NONE active; positive | Test System: AMES SALMONELLA TYPHIMURIUM, Strain/Indicator: TA1537, Metabolic Activation: NONE, Method: PREINCUBATION active; positive | Test System: AMES SALMONELLA TYPHIMURIUM, Strain/Indicator: TA1537, Metabolic Activation: NONE, Method: SPIRAL ASSAY active; positive | Test System: AMES SALMONELLA TYPHIMURIUM, Strain/Indicator: TA1537, Metabolic Activation: NONE, Method: STANDARD PLATE active; positive | Test System: AMES SALMONELLA TYPHIMURIUM, Strain/Indicator: TA1537, Metabolic Activation: RAT LIVER S-9, AROCLOR 1254, Method: FLUCTUATION (MICROTITER) active; positive | Test System: AMES SALMONELLA TYPHIMURIUM, Strain/Indicator: TA1537, Metabolic Activation: RAT, LIVER, S-9, AROCLOR 1254 (10%), Method: PREINCUBATION active; positive | Test System: AMES SALMONELLA TYPHIMURIUM, Strain/Indicator: TA1537, Metabolic Activation: RAT, LIVER, S-9, AROCLOR 1254, Method: SPIRAL ASSAY active; positive | Test System: AMES SALMONELLA TYPHIMURIUM, Strain/Indicator: TA1537, Metabolic Activation: RAT, LIVER, S-9, AROCLOR 1254, Method: STANDARD PLATE active; positive | Test System: AMES SALMONELLA TYPHIMURIUM, Strain/Indicator: TA1537, Metabolic Activation: RAT, LIVER, S-9, TETRACHLOROBIPHENYL, Method: PREINCUBATION active; positive | Test System: AMES SALMONELLA TYPHIMURIUM, Strain/Indicator: TA1977, Metabolic Activation: NONE, Method: PREINCUBATION active; positive | Test System: AMES SALMONELLA TYPHIMURIUM, Strain/Indicator: TA1977, Metabolic Activation: RAT, LIVER, S-9, TETRACHLOROBIPHENYL, Method: PREINCUBATION active; positive | Test System: E. coli, Strain/Indicator: KKi (wild-type), KK5 (recA56) and KK6 (uvrA6), Metabolic Activation: None, Method: Viable cells scored on LB-plates after 18 hr incubation active; positive in all 3 strains (most common mutations minus frameshifts in repetitive
